Measured values taken from ChEMBL document CHEMBL1201862, “PubChem BioAssay data set” (2004).
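Values below derive from 48-hour exposures of cells grown in 96-well plates, with endpoints linearly interpolated between the two concentrations bracketing the appropriate inhibition level. At the GI50, growth is halved.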 Calls of active or inactive are those of the source. No stated cut-off is given here; in the data, active = GI50 up to about 1.1 µM and inactive = higher.

Legend:
Assay in all cases: NCI tumour cell line growth inhibition, 48 h
786-0 = test system: 786-0
A498 = test system: A498
A549 = test system: A549
ACHN = test system: ACHN
CAKI-1 = test system: CAKI-1
CCRF-CEM = test system: CCRF-CEM
COLO 205 = test system: COLO 205
DLD-1 = test system: DLD-1
DMS-114 = test system: DMS-114
DMS-273 = test system: DMS-273
EKVX = test system: EKVX
HCC 2998 = test system: HCC 2998
HCT-116 = test system: HCT-116
HCT-15 = test system: HCT-15
HL-60 = test system: HL-60
HOP-62 = test system: HOP-62
HT-29 = test system: HT-29
K562 = test system: K562
KM-20L2 = test system: KM-20L2
KM12 = test system: KM12
LOX IMVI = test system: LOX IMVI
LXFL 529 = test system: LXFL 529
M14 = test system: M14
M19-MEL = test system: M19-MEL
MOLT-4 = test system: MOLT-4
Malme-3M = test system: Malme-3M
NCI-H226 = test system: NCI-H226
NCI-H23 = test system: NCI-H23
NCI-H460 = test system: NCI-H460
NCI-H522 = test system: NCI-H522
OVCAR-3 = test system: OVCAR-3
OVCAR-4 = test system: OVCAR-4
OVCAR-5 = test system: OVCAR-5
OVCAR-8 = test system: OVCAR-8
RXF 393 = test system: RXF 393
SF-268 = test system: SF-268
SF-295 = test system: SF-295
SF-539 = test system: SF-539
SK-MEL-28 = test system: SK-MEL-28
SK-MEL-5 = test system: SK-MEL-5
SK-OV-3 = test system: SK-OV-3
SN12C = test system: SN12C
SNB-19 = test system: SNB-19
SNB-75 = test system: SNB-75
SNB-78 = test system: SNB-78
SR = test system: SR
TK-10 = test system: TK-10
U-251 = test system: U-251
UACC-257 = test system: UACC-257
UACC-62 = test system: UACC-62
UO-31 = test system: UO-31
XF498 = test system: XF498
HOP-92 = test system: HOP-92
IGROV-1 = test system: IGROV-1
RPMI-8226 = test system: RPMI-8226
SW-620 = test system: SW-620

Cn1cc/c(=N\N=c2/ccn(C)c3ccccc23)c2ccccc21
GI50 (786-0): 16.4 µM (inactive)
GI50 (A498): 18.5 µM (inactive)
GI50 (A549): 15.7 µM (inactive)
GI50 (ACHN): 13.9 µM (inactive)
GI50 (CAKI-1): 17.9 µM (inactive)
GI50 (CCRF-CEM): 6.31 µM (inactive)
GI50 (COLO 205): 10.4 µM (inactive)
GI50 (DLD-1): 14.7 µM (inactive)
GI50 (DMS-114): 14.4 µM (inactive)
GI50 (DMS-273): 16.4 µM (inactive)
GI50 (EKVX): 14.7 µM (inactive)
GI50 (HCC 2998): 15.8 µM (inactive)
GI50 (HCT-116): 11.1 µM (inactive)
GI50 (HCT-15): 15.8 µM
GI50 (HL-60): 5.78 µM (inactive)
GI50 (HOP-62): 13.1 µM (inactive)
GI50 (HT-29): 12.7 µM (inactive)
GI50 (K562): 4.44 µM (inactive)
GI50 (KM-20L2): 13.1 µM (inactive)
GI50 (KM12): 13 µM (inactive)
GI50 (LOX IMVI): 11.9 µM (inactive)
GI50 (LXFL 529): 14.1 µM (inactive)
GI50 (M14): 16.9 µM (inactive)
GI50 (M19-MEL): 18.7 µM (inactive)
GI50 (MOLT-4): 27.1 µM (inactive)
GI50 (Malme-3M): 17.2 µM (inactive)
GI50 (NCI-H226): 11.7 µM (inactive)
GI50 (NCI-H23): 13.2 µM (inactive)
GI50 (NCI-H460): 12.1 µM (inactive)
GI50 (NCI-H522): 14.6 µM (inactive)
GI50 (OVCAR-3): 11.7 µM (inactive)
GI50 (OVCAR-4): 12.7 µM (inactive)
GI50 (OVCAR-5): 15.8 µM (inactive)
GI50 (OVCAR-8): 14.9 µM (inactive)
GI50 (RXF 393): 14.3 µM (inactive)
GI50 (SF-268): 19.3 µM (inactive)
GI50 (SF-295): 16.1 µM (inactive)
GI50 (SF-539): 15.9 µM (inactive)
GI50 (SK-MEL-28): 15.2 µM (inactive)
GI50 (SK-MEL-5): 15.9 µM (inactive)
GI50 (SK-OV-3): 15.7 µM (inactive)
GI50 (SN12C): 16.9 µM (inactive)
GI50 (SNB-19): 16.9 µM (inactive)
GI50 (SNB-75): 24.1 µM (inactive)
GI50 (SNB-78): 16.4 µM (inactive)
GI50 (SR): 16.4 µM (inactive)
GI50 (TK-10): 19.1 µM (inactive)
GI50 (U-251): 15.7 µM (inactive)
GI50 (UACC-257): 13.9 µM (inactive)
GI50 (UACC-62): 16.2 µM (inactive)
GI50 (UO-31): 13.2 µM (inactive)
GI50 (XF498): 14.1 µM (inactive)

CN(C)/N=C(/c1nc2ccc([N+](=O)[O-])cc2nc1O)C(O)c1ccco1 (stereo not given)
GI50 (786-0): > 100 µM (inactive)
GI50 (A549): > 100 µM (inactive)
GI50 (ACHN): 35.4 µM (inactive)
GI50 (CAKI-1): 48.1 µM (inactive)
GI50 (CCRF-CEM): > 100 µM (inactive)
GI50 (COLO 205): > 100 µM (inactive)
GI50 (DLD-1): 84.1 µM (inactive)
GI50 (DMS-114): 16.4 µM (inactive)
GI50 (DMS-273): 91 µM (inactive)
GI50 (HCC 2998): 53 µM (inactive)
GI50 (HCT-116): > 100 µM (inactive)
GI50 (HCT-15): 26.2 µM
GI50 (HL-60): > 100 µM (inactive)
GI50 (HOP-62): 72.1 µM (inactive)
GI50 (HOP-92): > 100 µM (inactive)
GI50 (HT-29): > 100 µM (inactive)
GI50 (IGROV-1): 90.4 µM (inactive)
GI50 (K562): > 100 µM (inactive)
GI50 (KM-20L2): 21 µM (inactive)
GI50 (KM12): 34.8 µM (inactive)
GI50 (LOX IMVI): 50 µM (inactive)
GI50 (LXFL 529): 58.1 µM (inactive)
GI50 (M14): > 100 µM (inactive)
GI50 (M19-MEL): > 100 µM (inactive)
GI50 (MOLT-4): > 100 µM (inactive)
GI50 (Malme-3M): > 100 µM (inactive)
GI50 (NCI-H226): > 100 µM (inactive)
GI50 (NCI-H23): > 100 µM (inactive)
GI50 (NCI-H460): > 100 µM (inactive)
GI50 (NCI-H522): 8.57 µM (inactive)
GI50 (OVCAR-3): > 100 µM (inactive)
GI50 (OVCAR-4): > 100 µM (inactive)
GI50 (OVCAR-5): > 100 µM (inactive)
GI50 (OVCAR-8): > 100 µM (inactive)
GI50 (RPMI-8226): > 100 µM (inactive)
GI50 (RXF 393): > 100 µM (inactive)
GI50 (SF-268): 84.9 µM (inactive)
GI50 (SF-295): > 100 µM (inactive)
GI50 (SF-539): > 100 µM (inactive)
GI50 (SK-MEL-28): > 100 µM (inactive)
GI50 (SK-MEL-5): 70.1 µM (inactive)
GI50 (SK-OV-3): > 100 µM (inactive)
GI50 (SN12C): > 100 µM (inactive)
GI50 (SNB-19): > 100 µM (inactive)
GI50 (SNB-75): > 100 µM (inactive)
GI50 (SNB-78): > 100 µM (inactive)
GI50 (SR): > 100 µM (inactive)
GI50 (SW-620): 92.3 µM (inactive)
GI50 (U-251): > 100 µM (inactive)
GI50 (UACC-257): > 100 µM (inactive)
GI50 (UACC-62): 22.8 µM (inactive)
GI50 (UO-31): 2.51 µM (inactive)
GI50 (XF498): > 100 µM (inactive)
